Measurements from ChEMBL document CHEMBL4052684, “A novel intestinal-restricted FXR agonist” (Bioorg Med Chem Lett, 2017).
Active and inactive are the calls of the source. No cut-off for these calls is given here.

Assays:
[1] = target: T1, Bile acid receptor (Homo sapiens) (UniProt Q96RI1); assay: Agonist activity at FXR in human Hepg2 cells; format: cell-based
T1 sequence (whole entry): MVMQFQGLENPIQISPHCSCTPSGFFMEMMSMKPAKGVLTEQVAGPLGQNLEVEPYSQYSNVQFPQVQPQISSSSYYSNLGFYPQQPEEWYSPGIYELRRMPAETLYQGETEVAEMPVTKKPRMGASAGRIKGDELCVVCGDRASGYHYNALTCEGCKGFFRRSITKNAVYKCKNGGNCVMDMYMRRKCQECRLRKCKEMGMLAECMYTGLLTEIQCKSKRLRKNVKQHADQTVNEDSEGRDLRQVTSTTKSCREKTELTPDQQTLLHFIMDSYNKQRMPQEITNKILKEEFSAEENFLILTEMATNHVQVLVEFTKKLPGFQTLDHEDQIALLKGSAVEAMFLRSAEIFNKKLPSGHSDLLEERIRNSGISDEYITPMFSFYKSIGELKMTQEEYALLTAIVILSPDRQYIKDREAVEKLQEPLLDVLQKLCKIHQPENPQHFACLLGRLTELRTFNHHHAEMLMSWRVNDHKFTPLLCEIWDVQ

[2] = target: T2, Bile acid receptor (Rattus norvegicus) (UniProt Q62735); assay: Agonist activity at FXR in rat primary hepatocytes; format: cell-based
T2 sequence (whole entry): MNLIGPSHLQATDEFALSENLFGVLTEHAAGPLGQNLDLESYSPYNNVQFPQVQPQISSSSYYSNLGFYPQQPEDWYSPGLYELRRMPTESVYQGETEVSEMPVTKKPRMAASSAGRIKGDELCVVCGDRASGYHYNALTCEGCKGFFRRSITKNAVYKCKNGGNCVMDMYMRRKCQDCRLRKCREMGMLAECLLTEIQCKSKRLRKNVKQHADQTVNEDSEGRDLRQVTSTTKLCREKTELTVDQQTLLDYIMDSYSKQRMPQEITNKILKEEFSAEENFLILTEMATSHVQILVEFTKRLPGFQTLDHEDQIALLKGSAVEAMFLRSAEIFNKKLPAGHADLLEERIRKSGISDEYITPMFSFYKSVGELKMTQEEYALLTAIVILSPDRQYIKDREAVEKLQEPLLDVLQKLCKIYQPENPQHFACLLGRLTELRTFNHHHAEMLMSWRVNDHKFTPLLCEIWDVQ

[3] = target: T1, Bile acid receptor (Homo sapiens); assay: Agonist activity at FXR in human Caco2 cells; format: cell-based
[4] = target: T2, Bile acid receptor (Rattus norvegicus); assay: Agonist activity at FXR in rat primary hepatocytes assessed as increase in BSEP mRNA expression at 50 uM; format: cell-based
[5] = target: T2, Bile acid receptor (Rattus norvegicus); assay: Agonist activity at FXR in rat primary hepatocytes assessed as reduction in CYP7A1 mRNA expression at 50 uM; format: cell-based
[6] = target: T2, Bile acid receptor (Rattus norvegicus); assay: Agonist activity at FXR in rat primary hepatocytes assessed as increase in SHP mRNA expression at 50 uM; format: cell-based
Mus musculus [7] = assay: Induction of FXR activation in C57BL/6 mouse ileum assessed as increase in FXR-mediated Bsep mRNA expression at 100 mg/kg, ig for 5 days by PCR method; format: functional, organism-based
Caco-2 = assay: Cytotoxicity against human Caco2 cells at 100 uM incubated for 24 hrs by MTT assay; format: cell-based; conditions: caco-2, 24 h
[8] = Apparent permeability from basolateral to apical side in human Caco2 cells at 20 uM by LC-MS/MS method; format: ADME, cell-based; conditions: Caco-2
Mus musculus [9] = assay: Effect on FXR activation in C57BL/6 mouse non ileum part of intestine assessed as increase in FXR-mediated Shp mRNA expression at 100 mg/kg, ig for 5 days by PCR method; format: organism-based; conditions: in vivo, po, 120 h
Mus musculus [10] = assay: Effect on FXR mRNA expression in C57BL/6 mouse duodenum at 100 mg/kg, ig for 5 days by PCR method; format: ADME, organism-based; conditions: in vivo, po, 120 h
[11] = Drug uptake in human Caco2 cells at 20 and 50 uM by LC-MS/MS method; format: ADME, cell-based; conditions: Caco-2
Mus musculus [12] = assay: Effect on FXR activation in C57BL/6 mouse kidney assessed as increase in FXR-mediated Shp mRNA expression at 100 mg/kg, ig for 5 days by PCR method; format: organism-based; conditions: in vivo, po, 120 h
Mus musculus [13] = assay: Effect on FXR mRNA expression in C57BL/6 mouse liver at 100 mg/kg, ig for 5 days by PCR method; format: ADME, organism-based; conditions: in vivo, po, 120 h
Mus musculus [14] = assay: Effect on FXR mRNA expression in C57BL/6 mouse jejunum at 100 mg/kg, ig for 5 days by PCR method; format: ADME, organism-based; conditions: in vivo, po, 120 h
[15] = Efflux ratio in human Caco2 cells at 50 uM by LC-MS/MS method; format: ADME, cell-based; conditions: Caco-2
Mus musculus [16] = assay: Induction of FXR activation in C57BL/6 mouse ileum assessed as reduction in FXR-mediated Cyp7A1 mRNA expression at 100 mg/kg, ig for 5 days by PCR method; format: functional, organism-based
[17] = Solubility in DMSO/mineral oil medium; format: physicochemical
Bile acid receptor = target: T3, Bile acid receptor (Homo sapiens, UniProt Q96RI1); assay: Binding affinity to FXR (unknown origin)
T3 sequence (Q96RI1 whole entry): T1 sequence (whole entry)

[18] = Efflux ratio in human Caco2 cells at 20 uM by LC-MS/MS method; format: ADME, cell-based; conditions: Caco-2
[19] = Drug uptake in human Caco2 cells at 20 and 50 uM by LC-MS/MS method after 3 hrs; format: ADME, cell-based; conditions: caco-2, 3 h
[20] = Apparent permeability from apical side to basolateral side in human Caco2 cells at 20 uM by LC-MS/MS method; format: ADME, cell-based; conditions: Caco-2
[21] = Apparent permeability from apical side to basolateral side in human Caco2 cells at 50 uM by LC-MS/MS method; format: ADME, cell-based; conditions: Caco-2
Ileum = assay: Drug accumulation in C57BL/6 mouse ileum at 100 mg/kg, ig for 5 days by LC-MS/MS method; format: ADME, organism-based; conditions: in vivo, po, 120 h
[22] = Apparent permeability from basolateral to apical side in human Caco2 cells at 50 uM by LC-MS/MS method; format: ADME, cell-based; conditions: Caco-2
Mus musculus [23] = assay: Increase in FXR mRNA expression in C57BL/6 mouse ileum at 100 mg/kg, ig for 5 days by PCR method; format: functional, organism-based
Mus musculus [24] = assay: Effect on FXR mRNA expression in C57BL/6 mouse kidney at 100 mg/kg, ig for 5 days by PCR method; format: ADME, organism-based; conditions: in vivo, po, 120 h
[25] = target: T1, Bile acid receptor (Homo sapiens); assay: Binding affinity to FXR (unknown origin) relative to fexaramine
Mus musculus [26] = assay: Induction of FXR activation in C57BL/6 mouse ileum assessed as increase in FXR-mediated Shp mRNA expression at 100 mg/kg, ig for 5 days by PCR method; format: functional, organism-based
Mus musculus [27] = assay: Effect on FXR activation in C57BL/6 mouse liver assessed as increase in FXR-mediated Shp mRNA expression at 100 mg/kg, ig for 5 days by PCR method; format: organism-based; conditions: in vivo, po, 120 h
Intestine = assay: Drug accumulation in C57BL/6 mouse intestine assessed as drug adherence to intestinal wall at 100 mg/kg, ig for 5 days by LC-MS/MS method; format: ADME, organism-based; conditions: in vivo, po, 120 h
[28] = Drug uptake in human Caco2 cells at 20 and 50 uM by LC-MS/MS method relative to initial level; format: ADME, cell-based; conditions: caco-2, TDE = time-dependent effect
Serum = assay: Drug accumulation in C57BL/6 mouse serum at 100 mg/kg, ig for 5 days by LC-MS/MS method; format: ADME, organism-based; conditions: in vivo, po, 120 h
Liver = assay: Drug accumulation in C57BL/6 mouse liver at 100 mg/kg, ig for 5 days by LC-MS/MS method; format: ADME, organism-based; conditions: in vivo, po, 120 h
Jejunum = assay: Drug accumulation in C57BL/6 mouse jejunum at 100 mg/kg, ig for 5 days by LC-MS/MS method; format: ADME, organism-based; conditions: in vivo, po, 120 h

Row | SMILES | Activity [1] | Activity [2] | Activity [3] | Activity [5] | Activity [6] | Papp B→A at 20 µM [8] [×10⁻⁶ cm/s] | Drug uptake [11] | efflux ratio at 50 µM [15] | efflux ratio at 20 µM [18] | Papp A→B at 20 µM [20] [×10⁻⁶ cm/s] | Papp A→B at 50 µM [21] [×10⁻⁶ cm/s] | Drug uptake (Ileum) | Papp B→A at 50 µM [22] [×10⁻⁶ cm/s] | Activity [4] | Activity (Mus musculus [7]) | Activity (Mus musculus [16]) | further results
1 | COC(=O)/C=C/c1cccc(N(Cc2ccc(-c3ccc(N(C)C)cc3)cc2)C(=O)c2ccc3cc(N(C)C)ccc3c2)c1 | inactive | – | inactive | Active | Active | – | – | – | – | – | – | – | – | Active | – | – | –
2 | CNc1ccc2cc(C(=O)N(Cc3ccc(-c4ccc(N(C)C)cc4)cc3)c3cccc(/C=C/C(=O)OC)c3)ccc2c1 | inactive | – | inactive | Active | Active | 6.62 | Active | 0.77 | 0.35 | 18.7 | 97.6 | Active | 75 | Active | Active | Active | Activity (Caco-2): Non-Toxic; Activity (Mus musculus [9]): Non-Toxic; Activity (Mus musculus [10]): Non-Toxic; Activity (Mus musculus [12]): Non-Toxic; Activity (Mus musculus [13]): Non-Toxic; Activity (Mus musculus [14]): Non-Toxic; solubility [17]: Insoluble; Kd (Bile acid receptor): 48.7 µM; Drug uptake [19]: Active; Activity (Mus musculus [23]): Active; Activity (Mus musculus [24]): Non-Toxic; Ratio [25]: 2000; Activity (Mus musculus [26]): Active; Activity (Mus musculus [27]): Non-Toxic; Drug uptake (Intestine): Active
3 | COC(=O)/C=C/c1cccc(N(Cc2ccc(-c3ccc(N(C)C)cc3)cc2)C(=O)C2CCCCC2)c1 [FEXARAMINE] | – | – | – | – | – | 24 | Active | 1.14 | 0.87 | 27.7 | 762 | Active | 873 | – | Active | Active | Drug uptake [28]: Tde; Drug uptake (Serum): Active; Drug uptake (Liver): Active; Drug uptake (Jejunum): Active

More lines, main results first:

Row | Activity [1] | Activity [2] | Activity [3] | Activity [5] | Activity [6] | Papp B→A at 20 µM [8] [×10⁻⁶ cm/s] | Drug uptake [11] | efflux ratio at 50 µM [15] | efflux ratio at 20 µM [18] | Papp A→B at 20 µM [20] [×10⁻⁶ cm/s] | Papp A→B at 50 µM [21] [×10⁻⁶ cm/s] | Drug uptake (Ileum) | Papp B→A at 50 µM [22] [×10⁻⁶ cm/s] | SMILES | Activity [4] | Activity (Mus musculus [7]) | Activity (Mus musculus [16]) | further results
4 | inactive | inactive | inactive | – | – | – | – | – | – | – | – | – | – | COC(=O)/C=C/c1cccc(N(CC2CCCCC2)C(=O)c2ccc3cc(N(C)C)ccc3c2)c1 | – | – | – | –
5 | inactive | inactive | inactive | – | – | – | – | – | – | – | – | – | – | CNc1ccc2cc(C(=O)N(CC3CCCCC3)c3cccc(/C=C/C(=O)OC)c3)ccc2c1 | – | – | – | –
